Source: patent publication US20180000085A1, “USE OF PICOLINAMIDE COMPOUNDS WITH FUNGICIDAL ACTIVITY” (DOW AGROSCIENCES LLC, priority 2014, published 2018)

Assays:
Assay type in all cases: in vivo
[1] = tested on: Colletotrichum lagenarium; test: Cucumber anthracnose (COLLLA) disease control; details: 100 ppm, 1 Day Protectant
Protocol: All fungicides were evaluated using the aforementioned method for their activity vs. all target diseases, unless stated otherwise. Wheat leaf blotch and brown rust activity were also evaluated using track spray applications, in which case the fungicides were formulated as EC formulations, containing 0.1% Trycol 5941 in the spray solutions. Wheat plants (variety Yuma) were grown from seed in a greenhouse in 50% mineral soil/50% soil-less Metro mix until the first leaf was fully emerged, with 7-10 seedlings per pot. These plants were inoculated with an aqueous spore suspension of Zymoseptoria tritici either prior to or after fungicide treatments. After inoculation the plants were kept in 100% relative humidity (one day in a dark dew chamber followed by two to three days in a lighted dew chamber at 20° C.) to permit spores to germinate and infect the leaf. The plants were then transferred to a greenhouse set at 20° C. for disease to develop. When disease symptoms were fully expressed on the 1st leaves of untreated plants, infection levels were assessed on a scale of 0 to 100 percent disease severity. Percent disease control was calculated using the ratio of disease severity on treated plants relative to untreated plants. Example K: Evaluation of Fungicidal Activity: Cucumber Anthracnose (Colletotrichum lagenarium; Bayer Code COLLLA) Cucumber seedlings (variety Bush Pickle) were propagated in soil-less Metro mix, with each pot having one plant, and used in the test when 12 to 14 days old. Test plants were inoculated with an aqueous spore suspension of Colletotrichum lagenarium 24 hr after fungicide treatments. After inoculation the plants were kept in a dew room at 22° C. with 100% relative humidity for 48 hr to permit spores to germinate and infect the leaf. The plants were then transferred to a growth room set at 22° C. for disease to develop. Fungicide formulation, application and disease assessment on the sprayed leaves followed the procedures as described in the Example A.

Rhyncosporium secalis = test: Barley scald (RHYNSE) disease control; parameters: key: A: > 80; B: ≤ 80; C: Not Tested; D: No Activity Observed in the Reported Assay; details: 100 ppm, 1 Day Protectant
Protocol: All fungicides were evaluated using the aforementioned method for their activity vs. all target diseases, unless stated otherwise. Wheat leaf blotch and brown rust activity were also evaluated using track spray applications, in which case the fungicides were formulated as EC formulations, containing 0.1% Trycol 5941 in the spray solutions. Wheat plants (variety Yuma) were grown from seed in a greenhouse in 50% mineral soil/50% soil-less Metro mix until the first leaf was fully emerged, with 7-10 seedlings per pot. These plants were inoculated with an aqueous spore suspension of Zymoseptoria tritici either prior to or after fungicide treatments. After inoculation the plants were kept in 100% relative humidity (one day in a dark dew chamber followed by two to three days in a lighted dew chamber at 20° C.) to permit spores to germinate and infect the leaf. The plants were then transferred to a greenhouse set at 20° C. for disease to develop. When disease symptoms were fully expressed on the 1st leaves of untreated plants, infection levels were assessed on a scale of 0 to 100 percent disease severity. Percent disease control was calculated using the ratio of disease severity on treated plants relative to untreated plants. Example H: Evaluation of Fungicidal Activity: Barley Scald (Rhyncosporium secalis; Bayer Code […]) Barley seedlings (variety Harrington) were propagated in soil-less Metro mix, with each pot having 8 to 12 plants, and used in the test when first leaf was fully emerged. Test plants were inoculated by an aqueous spore suspension of Rhyncosporium secalis 24 hr after fungicide treatments. After inoculation the plants were kept in a dew room at 22° C. with 100% relative humidity for 48 hr. The plants were then transferred to a greenhouse set at 20° C. for disease to develop. Fungicide formulation, application and disease assessment on the sprayed leaves followed the procedures as described in the Example A.

Phakopsora pachyrhizi = test: Asian soybean rust (PHAKPA) disease control; details: 25 ppm; for PHAKPA disease control, 1DP: 1 Day Protectant; for PHAKPA disease control, 3DC: 3 Day Curative
Pyricularia oryzae = details: 100 ppm; 1 Day Protectant; rice
Cercospora beticola = test: Leaf spot of sugar beets (CERCBE) disease control; details: 100 ppm; 1 Day Protectant; sugar beet
Protocol: All fungicides were evaluated using the aforementioned method for their activity vs. all target diseases, unless stated otherwise. Wheat leaf blotch and brown rust activity were also evaluated using track spray applications, in which case the fungicides were formulated as EC formulations, containing 0.1% Trycol 5941 in the spray solutions. Wheat plants (variety Yuma) were grown from seed in a greenhouse in 50% mineral soil/50% soil-less Metro mix until the first leaf was fully emerged, with 7-10 seedlings per pot. These plants were inoculated with an aqueous spore suspension of Zymoseptoria tritici either prior to or after fungicide treatments. After inoculation the plants were kept in 100% relative humidity (one day in a dark dew chamber followed by two to three days in a lighted dew chamber at 20° C.) to permit spores to germinate and infect the leaf. The plants were then transferred to a greenhouse set at 20° C. for disease to develop. When disease symptoms were fully expressed on the 1st leaves of untreated plants, infection levels were assessed on a scale of 0 to 100 percent disease severity. Percent disease control was calculated using the ratio of disease severity on treated plants relative to untreated plants. Example F: Evaluation of Fungicidal Activity: Leaf Spot of Sugar Beets (Cercospora beticola; Bayer Code CERCBE) Sugar beet plants (variety HH88) were grown in soil-less Metro mix and trimmed regularly to maintain a uniform plant size prior to test. Plants were inoculated with a spore suspension 24 hr after fungicide treatments. Inoculated plants were kept in a dew chamber at 22° C. for 48 hr then incubated in a greenhouse set at 24° C. under a clear plastic hood with bottom ventilation until disease symptoms were fully expressed. Fungicide formulation, application and disease assessment on the sprayed leaves followed the procedures as described in the Example A.

| Structure (SMILES) | COLLLA disease control, 1DP [1] | RHYNSE disease control, 1DP (Rhyncosporium secalis) | PHAKPA disease control, 1DP (Phakopsora pachyrhizi) | PHAKPA disease control, 3DC (Phakopsora pachyrhizi) | PYRIOR disease control, 1DP (Pyricularia oryzae) | CERCBE disease control, 1DP (Cercospora beticola) |
| --- | --- | --- | --- | --- | --- | --- |
| CCC(CC)[C@@H](Oc1ccc(F)cc1)[C@H](C)OC(=O)[C@H](C)NC(=O)c1nccc(OC)c1OCOC(C)=O [Cmpd 587] | A (> 80) | B (≤ 80) | A (> 80) | B (≤ 80) | A (> 80) | A (> 80) |
| COc1ccnc(C(=O)N[C@@H](C)C(=O)O[C@@H](C)[C@H](Oc2cccc(Cl)c2)c2ccccc2)c1OCOC(C)=O [Cmpd 637] | B (≤ 80) | D | A (> 80) | B (≤ 80) | B (≤ 80) | B (≤ 80) |
| COc1ccnc(C(=O)N[C@@H](C)C(=O)O[C@@H](C)[C@H](Oc2ccccc2Cl)c2ccccc2)c1OC(C)=O [Cmpd 640] | A (> 80) | B (≤ 80) | B (≤ 80) | B (≤ 80) | A (> 80) | A (> 80) |
| COc1ccnc(C(=O)N[C@@H](C)C(=O)O[C@@H](C)[C@H](Oc2cc(F)cc(Cl)c2)c2ccccc2)c1OC(C)=O [Cmpd 642] | A (> 80) | A (> 80) | B (≤ 80) | B (≤ 80) | A (> 80) | A (> 80) |
| CCC(C)C(Oc1ccccc1)C(C)OC(=O)C(C)NC(=O)c1nccc(OC)c1OCOC(C)=O (stereo not drawn) [Cmpd 692] | A (> 80) | A (> 80) | A (> 80) | B (≤ 80) | A (> 80) | A (> 80) |
| C=CC(C)C(Oc1ccccc1)C(C)OC(=O)C(C)NC(=O)c1nccc(OC)c1OCOC(C)=O (stereo not drawn) [Cmpd 694] | A (> 80) | B (≤ 80) | A (> 80) | B (≤ 80) | A (> 80) | A (> 80) |
| CCC[C@@H](Oc1ccccc1)[C@H](C)OC(=O)[C@H](C)NC(=O)c1nccc(OC)c1OCOC(C)=O [Cmpd 699] | A (> 80) | B (≤ 80) | A (> 80) | B (≤ 80) | A (> 80) | A (> 80) |
| COc1ccnc(C(=O)N[C@@H](C)C(=O)O[C@@H](C)[C@@H](CC(C)C)Oc2ccccc2)c1OCOC(=O)C(C)C [Cmpd 1101] | A (> 80) | A (> 80) | A (> 80) | A (> 80) | B (≤ 80) | A (> 80) |
